PubChem BioAssay (NCI)
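1) Cells in 96-well plates. 2) Compound, 48 h, 5 concentrations. 3) Linear interpolation between surrounding doses. 4) Unreached endpoint = highest concentration. TGI: concentration producing complete growth inhibition.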

Legend:
Test in all cases: NCI anticancer screen, dose series, 48 h
SNB-78 CNS = system: SNB-78 CNS
DLD-1 colon = system: DLD-1 colon
SNB-75 CNS = system: SNB-75 CNS
KM12 colon = system: KM12 colon
A549 NSCLC = system: A549 NSCLC
MALME-3M melanoma = system: MALME-3M melanoma
HT29 colon = system: HT29 colon
RPMI-8226 leukemia = system: RPMI-8226 leukemia
OVCAR-8 ovarian = system: OVCAR-8 ovarian
COLO 205 colon = system: COLO 205 colon
HOP-18 NSCLC = system: HOP-18 NSCLC
DMS 114 small cell lung = system: DMS 114 small cell lung
UO-31 renal = system: UO-31 renal
HCT-116 colon = system: HCT-116 colon
SK-MEL-5 melanoma = system: SK-MEL-5 melanoma
SK-OV-3 ovarian = system: SK-OV-3 ovarian
NCI-H226 lung = system: NCI-H226 lung
HCC-2998 colon = system: HCC-2998 colon
SF-539 CNS = system: SF-539 CNS
A498 renal = system: A498 renal
LXFL 529 NSCLC = system: LXFL 529 NSCLC
SNB-19 CNS = system: SNB-19 CNS
TK-10 renal = system: TK-10 renal
SF-295 CNS = system: SF-295 CNS
SK-MEL-2 melanoma = system: SK-MEL-2 melanoma
LOX IMVI melanoma = system: LOX IMVI melanoma
SW-620 colon = system: SW-620 colon
K-562 leukemia = system: K-562 leukemia
HCT-15 colon = system: HCT-15 colon
HL-60(TB) leukemia = system: HL-60(TB) leukemia
ACHN renal = system: ACHN renal
RXF 393 renal = system: RXF 393 renal
HOP-62 NSCLC = system: HOP-62 NSCLC
NCI-H460 lung = system: NCI-H460 lung
HOP-92 NSCLC = system: HOP-92 NSCLC
KM20L2 colon = system: KM20L2 colon
U251 CNS = system: U251 CNS
EKVX NSCLC = system: EKVX NSCLC
SK-MEL-28 melanoma = system: SK-MEL-28 melanoma
OVCAR-5 ovarian = system: OVCAR-5 ovarian
CCRF-CEM leukemia = system: CCRF-CEM leukemia
SN12C renal = system: SN12C renal
OVCAR-3 ovarian = system: OVCAR-3 ovarian
CAKI-1 renal = system: CAKI-1 renal
NCI-H23 lung = system: NCI-H23 lung
NCI-H522 lung = system: NCI-H522 lung
UACC-257 melanoma = system: UACC-257 melanoma
786-0 renal = system: 786-0 renal
DMS 273 small cell lung = system: DMS 273 small cell lung
M14 melanoma = system: M14 melanoma
M19-MEL melanoma = system: M19-MEL melanoma
SF-268 CNS = system: SF-268 CNS
UACC-62 melanoma = system: UACC-62 melanoma
OVCAR-4 ovarian = system: OVCAR-4 ovarian
MOLT-4 leukemia = system: MOLT-4 leukemia
IGROV1 ovarian = system: IGROV1 ovarian
PC-3 prostate = system: PC-3 prostate
MCF7 breast = system: MCF7 breast
MDA-N = system: MDA-N
MDA-MB-231 breast = system: MDA-MB-231 breast
DU-145 prostate = system: DU-145 prostate
NCI/ADR-RES ovarian = system: NCI/ADR-RES ovarian
SR leukemia = system: SR leukemia
HS 578T breast = system: HS 578T breast
BT-549 breast = system: BT-549 breast
MDA-MB-435 = system: MDA-MB-435
T-47D breast = system: T-47D breast
XF 498 CNS = system: XF 498 CNS

NC(=S)N/N=C(/CC(=O)c1ccccc1)C(=O)Nc1ccc(Cl)c(Cl)c1
TGI (SNB-78 CNS): > 100 µM
TGI (DLD-1 colon): > 100 µM
TGI (SNB-75 CNS): > 100 µM
TGI (KM12 colon): > 100 µM
TGI (A549 NSCLC): > 100 µM
TGI (MALME-3M melanoma): > 100 µM
TGI (HT29 colon): > 100 µM
TGI (RPMI-8226 leukemia): > 100 µM
TGI (OVCAR-8 ovarian): > 100 µM
TGI (COLO 205 colon): > 100 µM
TGI (HOP-18 NSCLC): > 100 µM
TGI (DMS 114 small cell lung): > 100 µM
TGI (UO-31 renal): > 100 µM
TGI (HCT-116 colon): > 100 µM
TGI (SK-MEL-5 melanoma): > 100 µM
TGI (SK-OV-3 ovarian): > 100 µM
TGI (NCI-H226 lung): > 100 µM
TGI (HCC-2998 colon): > 100 µM
TGI (SF-539 CNS): > 100 µM
TGI (A498 renal): > 100 µM
TGI (LXFL 529 NSCLC): > 100 µM
TGI (SNB-19 CNS): > 100 µM
TGI (TK-10 renal): > 100 µM
TGI (SF-295 CNS): > 100 µM
TGI (SK-MEL-2 melanoma): > 100 µM
TGI (LOX IMVI melanoma): > 100 µM
TGI (SW-620 colon): > 100 µM
TGI (K-562 leukemia): > 100 µM
TGI (HCT-15 colon): > 100 µM
TGI (HL-60(TB) leukemia): > 100 µM
TGI (ACHN renal): > 100 µM
TGI (RXF 393 renal): > 100 µM
TGI (HOP-62 NSCLC): > 100 µM
TGI (NCI-H460 lung): > 100 µM
TGI (HOP-92 NSCLC): > 100 µM
TGI (KM20L2 colon): > 100 µM
TGI (U251 CNS): > 100 µM
TGI (EKVX NSCLC): > 100 µM
TGI (SK-MEL-28 melanoma): > 100 µM
TGI (OVCAR-5 ovarian): > 100 µM
TGI (CCRF-CEM leukemia): 91.6 µM
TGI (SN12C renal): > 100 µM
TGI (OVCAR-3 ovarian): > 100 µM
TGI (CAKI-1 renal): > 100 µM
TGI (NCI-H23 lung): > 100 µM
TGI (NCI-H522 lung): 59.4 µM
TGI (UACC-257 melanoma): > 100 µM
TGI (786-0 renal): > 100 µM
TGI (DMS 273 small cell lung): > 100 µM
TGI (M14 melanoma): > 100 µM
TGI (M19-MEL melanoma): > 100 µM
TGI (SF-268 CNS): > 100 µM
TGI (UACC-62 melanoma): > 100 µM
TGI (OVCAR-4 ovarian): > 100 µM
TGI (MOLT-4 leukemia): 93.7 µM
TGI (IGROV1 ovarian): > 100 µM

O=C1c2ccccc2CN1c1ccc(O)cc1
TGI (PC-3 prostate): > 100 µM
TGI (MCF7 breast): > 100 µM
TGI (MDA-N): > 100 µM
TGI (KM12 colon): > 100 µM
TGI (A549 NSCLC): > 100 µM
TGI (MALME-3M melanoma): > 100 µM
TGI (HT29 colon): > 100 µM
TGI (RPMI-8226 leukemia): > 100 µM
TGI (OVCAR-8 ovarian): > 100 µM
TGI (COLO 205 colon): > 100 µM
TGI (HCT-116 colon): > 100 µM
TGI (SK-MEL-5 melanoma): > 100 µM
TGI (SK-OV-3 ovarian): > 100 µM
TGI (NCI-H226 lung): > 100 µM
TGI (HCC-2998 colon): > 100 µM
TGI (SF-539 CNS): > 100 µM
TGI (A498 renal): > 100 µM
TGI (SNB-19 CNS): > 100 µM
TGI (TK-10 renal): > 100 µM
TGI (SF-295 CNS): > 100 µM
TGI (SK-MEL-2 melanoma): > 100 µM
TGI (MDA-MB-231 breast): > 100 µM
TGI (LOX IMVI melanoma): > 100 µM
TGI (DU-145 prostate): > 100 µM
TGI (SW-620 colon): > 100 µM
TGI (K-562 leukemia): > 100 µM
TGI (NCI/ADR-RES ovarian): > 100 µM
TGI (HCT-15 colon): > 100 µM
TGI (SR leukemia): > 100 µM
TGI (HL-60(TB) leukemia): > 100 µM
TGI (ACHN renal): > 100 µM
TGI (RXF 393 renal): > 100 µM
TGI (HOP-62 NSCLC): > 100 µM
TGI (NCI-H460 lung): > 100 µM
TGI (HOP-92 NSCLC): > 100 µM
TGI (U251 CNS): > 100 µM
TGI (EKVX NSCLC): > 100 µM
TGI (HS 578T breast): > 100 µM
TGI (SK-MEL-28 melanoma): > 100 µM
TGI (OVCAR-5 ovarian): > 100 µM
TGI (CCRF-CEM leukemia): > 100 µM
TGI (SN12C renal): > 100 µM
TGI (OVCAR-3 ovarian): > 100 µM
TGI (CAKI-1 renal): > 100 µM
TGI (NCI-H23 lung): > 100 µM
TGI (NCI-H522 lung): > 100 µM
TGI (UACC-257 melanoma): > 100 µM
TGI (786-0 renal): > 100 µM
TGI (M14 melanoma): > 100 µM
TGI (BT-549 breast): > 100 µM
TGI (MDA-MB-435): > 100 µM
TGI (SF-268 CNS): > 100 µM
TGI (T-47D breast): > 100 µM
TGI (UACC-62 melanoma): > 100 µM
TGI (OVCAR-4 ovarian): > 100 µM
TGI (MOLT-4 leukemia): > 100 µM
TGI (IGROV1 ovarian): > 100 µM

CCC(C(=O)O)c1ccc(OCc2ccccc2)cc1 (configuration not stated)
TGI (SNB-78 CNS): > 100 µM
TGI (DLD-1 colon): > 100 µM
TGI (SNB-75 CNS): > 100 µM
TGI (KM12 colon): > 100 µM
TGI (A549 NSCLC): > 100 µM
TGI (MALME-3M melanoma): > 100 µM
TGI (HT29 colon): > 100 µM
TGI (RPMI-8226 leukemia): > 100 µM
TGI (COLO 205 colon): > 100 µM
TGI (DMS 114 small cell lung): > 100 µM
TGI (UO-31 renal): > 100 µM
TGI (HCT-116 colon): > 100 µM
TGI (SK-MEL-5 melanoma): > 100 µM
TGI (SK-OV-3 ovarian): > 100 µM
TGI (NCI-H226 lung): > 100 µM
TGI (HCC-2998 colon): > 100 µM
TGI (SF-539 CNS): > 100 µM
TGI (A498 renal): > 100 µM
TGI (LXFL 529 NSCLC): > 100 µM
TGI (SNB-19 CNS): > 100 µM
TGI (XF 498 CNS): > 100 µM
TGI (TK-10 renal): > 100 µM
TGI (SF-295 CNS): > 100 µM
TGI (SK-MEL-2 melanoma): > 100 µM
TGI (LOX IMVI melanoma): > 100 µM
TGI (SW-620 colon): > 100 µM
TGI (K-562 leukemia): > 100 µM
TGI (SR leukemia): > 100 µM
TGI (HL-60(TB) leukemia): > 100 µM
TGI (ACHN renal): > 100 µM
TGI (RXF 393 renal): > 100 µM
TGI (HOP-62 NSCLC): > 100 µM
TGI (NCI-H460 lung): > 100 µM
TGI (HOP-92 NSCLC): > 100 µM
TGI (KM20L2 colon): > 100 µM
TGI (U251 CNS): > 100 µM
TGI (EKVX NSCLC): > 100 µM
TGI (SK-MEL-28 melanoma): > 100 µM
TGI (OVCAR-5 ovarian): > 100 µM
TGI (CCRF-CEM leukemia): > 100 µM
TGI (SN12C renal): > 100 µM
TGI (OVCAR-3 ovarian): > 100 µM
TGI (CAKI-1 renal): > 100 µM
TGI (NCI-H23 lung): > 100 µM
TGI (NCI-H522 lung): > 100 µM
TGI (UACC-257 melanoma): > 100 µM
TGI (DMS 273 small cell lung): > 100 µM
TGI (M14 melanoma): > 100 µM
TGI (SF-268 CNS): > 100 µM
TGI (UACC-62 melanoma): > 100 µM
TGI (OVCAR-4 ovarian): > 100 µM
TGI (MOLT-4 leukemia): > 100 µM
TGI (IGROV1 ovarian): > 100 µM

CCC(=O)OC[n+]1ccc2c(C)c3[nH]c4ccc(OC)cc4c3c(C)c2c1
TGI (DLD-1 colon): 1.26 µM
TGI (MALME-3M melanoma): 2.71 µM
TGI (HT29 colon): 1.57 µM
TGI (RPMI-8226 leukemia): 2.54 µM
TGI (HOP-18 NSCLC): 0.131 µM
TGI (HCT-116 colon): 1.13 µM
TGI (LXFL 529 NSCLC): 1.57 µM
TGI (TK-10 renal): 2.92 µM
TGI (K-562 leukemia): 23.9 µM
TGI (HL-60(TB) leukemia): 8.38 µM
TGI (ACHN renal): 3.76 µM
TGI (OVCAR-5 ovarian): 1.75 µM
TGI (CCRF-CEM leukemia): > 100 µM
TGI (786-0 renal): 1.73 µM
TGI (M19-MEL melanoma): 1.68 µM
TGI (IGROV1 ovarian): 1.03 µM
